Assay results as given in patent publication US12209038B2, “Effluent” (LINCOLN UNIVERSITY, priority 2019, dated 2025).
Like-named read-outs stand apart in the source and are kept apart here.

How the values were obtained:
[1] = 200 mg Fe/L of FDE, same rate of PFS and FS
Protocol: The objective of Experiment 6 was to compare the effectiveness of ferric sulphate (FS) versus polyferric sulphate (PFS) to reduce methane emissions from treated effluent. Experiment 6 was conducted using the same large (3.5 m deep×0.5 m diameter) PVC pipes described in Experiment 5. The gas capture equipment and measurement process were also identical to that described in Experiment 5.
There were three treatments: (i) untreated FDE; (ii) TE produced using PFS and (iii) TE produced using FS. There were four replicates of each treatment set out in a randomised block design. Five hundred and sixty litres of farm dairy effluent were pumped from the FDE storage pond on Lincoln University Dairy Farm into each column leaving a head space height of 10 cm. The same rate of PFS and FS was used (200 mg Fe/L of FDE). The PFS and FS solution was mixed into the effluent for two minutes using a handheld electric drill fitted with a paddle stirrer.

[2] = Experiment 7: glass jars, different sulphate and/or iron compounds, methane and hydrogen sulphide
Protocol: The objective of Experiment 7 was to measure the effect of different sulphate and/or iron compounds on emissions of methane and hydrogen sulphide gases from treated effluent. The experiment was conducted using the same 1.5 L glass jars and methods of measurement described in Experiment 2 above. There were 10 treatments: (i) untreated FDE, (ii) PFS treated effluent, (iii) calcium sulphate (CaSO4) treated effluent, (iv) potassium sulphate (K2SO4) treated effluent, (v) aluminium sulphate (Al2(SO4)3) treated effluent, (vi) magnesium sulphate (MgSO4) treated effluent, (vii) sodium sulphate (Na2SO4) treated effluent, (viii), ferrous sulphate (i.e. the divalent form of iron sulphate) (FeSO4) treated effluent, (ix) ferric chloride (FeCl3) treated effluent, and (x) ferrous chloride (FeCl2) treated effluent. The sulphate treatment chemicals were all used at the same rate of sulphate as applied in the PFS treatment (326 mg SO4/L) and the iron treatment chemicals were all used at the same rate of iron as applied in the PFS treatment (133 mg Fe/L).

[3] = iron chemicals at 133 mg Fe/L, same iron rate as PFS treatment

| Compound | amount of methane emitted from FDE [2] | effectiveness in reducing methane emitted compared with PFS [2] | emission of hydrogen sulphide (H2S) [2] | also measured |
| --- | --- | --- | --- | --- |
| O=S(=O)([O-])[O-].O=S(=O)([O-])[O-].O=S(=O)([O-])[O-].[Fe+3].[Fe+3] [FS, ferric sulphate] |  |  |  | effectiveness in reducing the methane emission flux compared with PFS [1]: equally as effective; effectiveness in reducing the total amount of methane emitted compared with PFS [1]: equally as effective |
| O=S(=O)([O-])[O-].[Fe+2] [ferrous sulphate] |  |  |  | effectiveness in reducing methane emission compared with PFS [2]: not nearly as effective |
| [Cl][Fe][Cl] [ferrous chloride] |  |  |  | effectiveness in reducing methane emission compared with PFS [2, 3]: not nearly as effective |
| O=S(=O)([O-])[O-].[K+].[K+] [potassium sulphate] | can be reduced | none of these chemicals were as effective as PFS | continued to produce, or enhanced the production of |  |
| [Cl][Fe]([Cl])[Cl] [ferric chloride] |  |  |  | effectiveness in reducing methane emission compared with PFS [2, 3]: not nearly as effective |
| O=S(=O)([O-])[O-].[Na+].[Na+] [sodium sulphate] | can be reduced | none of these chemicals were as effective as PFS | continued to produce, or enhanced the production of |  |
| O=S(=O)([O-])[O-].[Mg+2] [magnesium sulphate] | can be reduced | none of these chemicals were as effective as PFS | continued to produce, or enhanced the production of |  |
| O=S(=O)([O-])[O-].[Ca+2] [calcium sulphate] | can be reduced | none of these chemicals were as effective as PFS | continued to produce, or enhanced the production of |  |
